Reference: patent US10316032B2, “Solid forms of a compound for modulating kinases” (Plexxikon Inc., priority 2015, dated 2019)
pIC50: −log10 of the molar value. Converted amounts (≈) assume the structure as drawn.

How the values were obtained:
[1] = Interconversion (competitive slurry) experiments Form B / Form H; type: physicochemical; conditions: various solvent systems, between ambient temperature and approximately 75° C.
Method: Solutions of Compound I were prepared by adding sufficient solids to a given solvent or solvent system at ambient conditions such that undissolved solids were present. The mixture was then agitated in a closed vial at ambient or elevated temperature for an extended period of time. Solids were collected by vacuum filtration and analyzed.

[2] = Solubility estimates at ambient temperature (solvent aliquot addition, visual); type: physicochemical; conditions: thermodynamic from solid
Method: Aliquots of various solvents were added to measured amounts of Compound I with agitation (typically sonication) at ambient temperature until complete dissolution was achieved, as judged by visual observation. Solubilities were calculated based on the total solvent used to give a solution; actual solubilities may be greater because of the volume of solvent portions utilized or a slow rate of dissolution. […] If dissolution occurred at the first aliquot the value was reported as “>”.

B-Raf V600E kinase = B-Raf V600E kinase (Homo sapiens, UniProt P15056, V600E); assay: B-Raf V600E kinase inhibition
B-Raf V600E kinase, sequence (P15056 whole entry V600E): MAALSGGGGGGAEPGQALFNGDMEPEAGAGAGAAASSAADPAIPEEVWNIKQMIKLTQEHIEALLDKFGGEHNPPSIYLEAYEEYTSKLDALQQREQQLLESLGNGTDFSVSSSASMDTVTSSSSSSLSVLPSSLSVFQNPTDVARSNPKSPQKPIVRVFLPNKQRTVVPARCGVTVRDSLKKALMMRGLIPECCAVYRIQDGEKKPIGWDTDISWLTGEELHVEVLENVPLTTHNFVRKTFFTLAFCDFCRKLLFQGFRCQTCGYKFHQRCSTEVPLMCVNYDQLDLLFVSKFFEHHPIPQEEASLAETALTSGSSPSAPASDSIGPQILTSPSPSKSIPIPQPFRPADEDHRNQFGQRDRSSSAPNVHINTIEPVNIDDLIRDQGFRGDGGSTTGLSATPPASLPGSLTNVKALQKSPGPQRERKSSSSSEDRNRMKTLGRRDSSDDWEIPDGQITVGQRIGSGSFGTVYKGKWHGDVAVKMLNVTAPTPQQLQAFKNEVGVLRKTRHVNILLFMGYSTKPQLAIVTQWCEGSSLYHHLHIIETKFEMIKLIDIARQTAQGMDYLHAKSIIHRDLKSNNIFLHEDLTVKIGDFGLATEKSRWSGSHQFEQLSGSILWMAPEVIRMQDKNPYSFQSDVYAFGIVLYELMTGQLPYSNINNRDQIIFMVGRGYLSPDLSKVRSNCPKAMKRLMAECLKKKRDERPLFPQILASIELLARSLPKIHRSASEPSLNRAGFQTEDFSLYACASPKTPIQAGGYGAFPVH

With `O=C(c1c(F)ccc(NS(=O)(=O)N2CC[C@@H](F)C2)c1F)c1c[nH]c2ncc(-c3cnc(C4CC4)nc3)cc12` [Compound I Form B, (3R)—N-(3-(5-(2-cyclopropylpyrimidin-5-yl)-1H-pyrrolo[2,3-b]pyridine-3-carbonyl)-2,4-difluorophenyl)-3-fluoropyrrolidine-1-sulfonamide] the “relative stability of solid forms (competitive slurry)” value ([1]; listed as Form B) was “less stable than Form H”, the solubility ([2]; aqueous with cosolvent or surfactant or cyclodextrin, EtOH/Water (75/25 vol/vol)) was roughly 5 mg/mL (≈ 9.22 mM) and the solubility ([2]; organic solvent or mixture, ACN) was roughly 5 mg/mL (≈ 9.22 mM). The solubility ([2]; organic solvent or mixture, Acetone) was roughly 36 mg/mL (≈ 66.4 mM), the solubility ([2]; organic solvent or mixture, DCM) was less than 1 mg/mL and the solubility ([2]; organic solvent or mixture, DMF) was greater than 97 mg/mL. For the same compound, the solubility ([2]; organic solvent or mixture, DMSO) was greater than 84 mg/mL, the solubility ([2]; organic solvent or mixture, Dioxane) was greater than 103 mg/mL and the solubility ([2]; organic solvent or mixture, EtOAc) was roughly 5 mg/mL (≈ 9.22 mM). For the same compound, the solubility ([2]; organic solvent or mixture, EtOH) was roughly 1 mg/mL (≈ 1.84 mM), the solubility ([2]; organic solvent or mixture, Heptane) was less than 1 mg/mL and the solubility ([2]; organic solvent or mixture, IPA) was less than 1 mg/mL. It also gave a solubility ([2]; organic solvent or mixture, MTBE) of less than 2 mg/mL, a solubility ([2]; organic solvent or mixture, MeOH) of roughly 4 mg/mL (≈ 7.37 mM) and a solubility ([2]; organic solvent or mixture, THF) greater than 102 mg/mL. It also gave a solubility ([2]; organic solvent or mixture, t-BuOH) of less than 2 mg/mL and a solubility ([2]; Water) of less than 1 mg/mL.

In the case of `O=C(c1c(F)ccc(NS(=O)(=O)N2CC[C@@H](F)C2)c1F)c1c[nH]c2ncc(-c3cnc(C4CC4)nc3)cc12` [Compound I Form H, (3R)—N-(3-(5-(2-cyclopropylpyrimidin-5-yl)-1H-pyrrolo[2,3-b]pyridine-3-carbonyl)-2,4-difluorophenyl)-3-fluoropyrrolidine-1-sulfonamide], the “relative stability of solid forms (competitive slurry)” value ([1]; listed as Form H) was “more stable than Form B”.

With `O=C(c1c(F)ccc(NS(=O)(=O)N2CC[C@@H](F)C2)c1F)c1c[nH]c2ncc(-c3cnc(C4CC4)nc3)cc12` [Compound I, (3R)—N-(3-(5-(2-cyclopropylpyrimidin-5-yl)-1H-pyrrolo[2,3-b]pyridine-3-carbonyl)-2,4-difluorophenyl)-3-fluoropyrrolidine-1-sulfonamide] the pIC50 (B-Raf V600E kinase) was greater than 7.00.
